# Reference: ChEMBL document CHEMBL4177674, “Cyclotides, a versatile ultrastable micro-protein scaffold for biotechnological applications” (Bioorg Med Chem Lett, 2017)
# Bridge positions count the residues as written; N and C are the ends. Peptide text beside a SMILES is read from it.
# Biological target: T1, Serine protease 1 (Bos taurus, UniProt P00760)
# T1 sequence (P00760 whole entry): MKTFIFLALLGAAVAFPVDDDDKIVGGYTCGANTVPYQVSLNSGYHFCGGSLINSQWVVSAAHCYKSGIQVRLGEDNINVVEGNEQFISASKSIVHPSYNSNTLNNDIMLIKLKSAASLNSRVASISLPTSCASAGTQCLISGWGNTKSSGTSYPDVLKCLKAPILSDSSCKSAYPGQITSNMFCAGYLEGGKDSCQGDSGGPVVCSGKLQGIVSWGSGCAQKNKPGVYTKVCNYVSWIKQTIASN
# Assay: Inhibition of bovine beta-trypsin incubated for 5 mins using BAPNA as substrate by colorimetric assay
row,Ki [pM],Structure (SMILES)
1,20 to 30,CCC(C)[C@@H]1NC(=O)CNC(=O)[C@H](CC(N)=O)NC(=O)[C@H](Cc2ccc(O)cc2)NC(=O)[C@@H]2CSSC[C@@H]3NC(=O)[C@@H]4CCCN4C(=O)[C@H](C(C)CC)NC(=O)[C@H](Cc4ccc(O)cc4)NC(=O)[C@H](C(C)C)NC(=O)[C@@H]4CSSC[C@H](NC(=O)[C@H](CO)NC(=O)[C@H](CSSC[C@H](NC(=O)[C@@H]5CCCN5C1=O)C(=O)N[C@@H](C)C(=O)N[C@@H](CCC(=O)O)C(=O)N[C@@H](CO)C(=O)N4)NC(=O)CNC(=O)[C@H](CC(C)C)NC(=O)[C@H](CC(C)C)NC(=O)[C@H](C)NC(=O)[C@H]([C@@H](C)O)NC(=O)[C@H](C(C)C)NC(=O)[C@H]([C@@H](C)O)NC3=O)C(=O)N[C@@H](CO)C(=O)N[C@@H](CC(N)=O)C(=O)N[C@@H](CCCNC(=N)N)C(=O)N[C@@H](C(C)C)C(=O)N2 (stereo partly drawn)
2,20 to 30,"CC[C@H](C)[C@@H]1NC(=O)[C@H](C)NC(=O)[C@H](CO)NC(=O)[C@H](CO)NC(=O)[C@H]([C@@H](C)CC)NC(=O)[C@@H]2CSSC[C@@H]3NC(=O)[C@H](C(C)C)NC(=O)[C@H](CCCCN)NC(=O)[C@H](CO)NC(=O)[C@H](CCCCN)NC(=O)[C@@H]4CSSC[C@H](NC(=O)[C@H](CO)NC(=O)[C@H](CCC(=O)O)NC(=O)CNC(=O)[C@H](CSSC[C@H](NC(=O)CNC1=O)C(=O)N[C@@H](CO)C(=O)N4)NC(=O)[C@@H]1CCCN1C(=O)[C@H]([C@@H](C)CC)NC(=O)CNC(=O)[C@H](CC(N)=O)NC(=O)[C@H](CCCNC(=N)N)NC(=O)[C@H](Cc1ccc(O)cc1)NC3=O)C(=O)N[C@@H](C(C)C)C(=O)N[C@@H](Cc1c[nH]c3ccccc13)C(=O)N[C@@H]([C@@H](C)CC)C(=O)N1CCC[C@H]1C(=O)N2 (cyclo(AIGCSCKSKVCYRNGIPCGESCVWIPCISS); disulfide 4-18, 6-22, 11-27)"
3,20 to 30,"CC[C@H](C)[C@@H]1NC(=O)[C@@H]2CCCN2C(=O)[C@H](Cc2c[nH]c3ccccc23)NC(=O)[C@H]([C@@H](C)O)NC(=O)[C@@H]2CSSC[C@@H]3NC(=O)[C@H]([C@@H](C)O)NC(=O)[C@H](CCC(=O)O)NC(=O)CNC(=O)[C@@H]4CSSC[C@H](NC(=O)CNC(=O)[C@@H]5CCCN5C(=O)[C@H]([C@@H](C)O)NC(=O)[C@H](CC(N)=O)NC(=O)[C@H](CSSC[C@H](NC1=O)C(=O)N[C@@H]([C@@H](C)O)C(=O)N[C@@H](CCCNC(=N)N)C(=O)N[C@@H](CC(=O)O)C(=O)NCC(=O)N[C@@H](CC(C)C)C(=O)N1CCC[C@H]1C(=O)N[C@@H](C(C)C)C(=O)N4)NC(=O)[C@H]([C@@H](C)O)NC(=O)CNC(=O)CNC(=O)[C@H](Cc1ccccc1)NC3=O)C(=O)N[C@@H](CO)C(=O)N2 (cyclo(CFGGTCNTPGCSCTWPICTRDGLPVCGET); disulfide 1-13, 6-18, 11-26)"
